Our source for the Kd values is patent US20050192314A1, “Urea derivatives as C-kit modulators” (Ambit Biosciences Corporation, priority 2003, published 2005).

In the experiment the target is T1, KIT(DKIN) (Homo sapiens, UniProt P10721).
T1 construct: KIT(DKIN); made in house
T1 sequence (P10721 589-937 limits assumed): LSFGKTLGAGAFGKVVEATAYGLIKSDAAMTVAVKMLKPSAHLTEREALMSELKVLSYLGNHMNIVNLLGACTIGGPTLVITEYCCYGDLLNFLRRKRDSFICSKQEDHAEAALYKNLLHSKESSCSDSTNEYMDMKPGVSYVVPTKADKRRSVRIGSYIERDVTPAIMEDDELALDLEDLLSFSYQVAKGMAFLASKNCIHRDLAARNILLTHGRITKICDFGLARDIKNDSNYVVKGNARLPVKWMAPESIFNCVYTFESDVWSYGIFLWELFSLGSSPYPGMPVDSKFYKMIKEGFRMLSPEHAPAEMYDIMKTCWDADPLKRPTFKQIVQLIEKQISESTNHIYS
The experiment in a line: Binding constant (Kd) measurement, phage-displayed kinase competition binding assay: KIT(DKIN). The source says:
The term “ND” represents non-determined values.
The molecule `CC(C)(C)c1cc(NC(=O)Nc2ccc(NC(=O)c3ccncc3)cc2)no1` [Compound N167] registered a Kd of 0.1 to 1 µM.
To `CNC(=O)c1ccc(NC(=O)Nc2cc(C(C)(C)C)on2)cc1` [Compound N85] belongs 0.1 to 1 µM; to `CC(C)(C)c1cc(NC(=O)Nc2ccc(C(=O)Nc3ccc(OCC4CCC4)cc3)cc2)no1` [Compound N100], 0.1 to 1 µM; to `CC(C)(C)c1cc(NC(=O)Nc2ccc(OCc3ccc(F)cc3)cc2)no1` [Compound G35], below 0.1 µM.
As for `CC(C)(C)c1cc(NC(=O)Nc2ccc(C(=O)Nc3ccc(F)cc3F)cc2)no1` [Compound N153], the figure is 0.1 to 1 µM; as for `CC(C)(C)c1cc(NC(=O)Nc2ccc(OCc3ccc(C(F)(F)F)cc3)cc2)no1` [Compound G6], 0.1 to 1 µM; as for `CC(C)(C)c1cc(NC(=O)Nc2ccc(OCc3ccc(OC(F)(F)F)cc3)cc2)no1` [Compound G5], 0.1 to 1 µM.
To `CC(C)(C)c1cc(NC(=O)Nc2ccc(OCc3ccccc3Cl)cc2)no1` [Compound G10] belongs below 0.1 µM; to `CC(C)(C)c1cc(NC(=O)Nc2ccc(N)cc2)no1` [Compound C1, 1-(5-tert-butylisoxazol-3-yl)-3-(4-aminophenyl)urea], 1 to 10 µM.
The molecule `C/C=C/C(=O)Nc1ccc(NC(=O)Nc2cc(C(C)(C)C)on2)cc1` [Compound N93] showed a Kd of 1 to 10 µM.
To `CC(C)(C)c1cc(NC(=O)Nc2ccc(OCc3cccc(F)c3)cc2)no1` [Compound G14] belongs 0.1 to 1 µM.
To `Cc1nn(C)c(Cl)c1C(=O)Nc1ccc(NC(=O)Nc2cc(C(C)(C)C)on2)cc1` [Compound N116] belongs 0.1 to 1 µM.
To `COC(=O)c1ccc(C(=O)Nc2ccc(NC(=O)Nc3cc(C(C)(C)C)on3)cc2)nc1` [Compound N12] belongs 0.1 to 1 µM.
The molecule `CC(C)(C)c1cc(NC(=O)Nc2ccc(NC(=O)c3cnc4ccccc4c3)cc2)no1` [Compound N108] gave a Kd of 0.1 to 1 µM.
To `CN(Cc1cccc([N+](=O)[O-])c1)C(=O)Nc1cc(C(C)(C)C)on1` [Compound J3] belongs 1 to 10 µM.
As for `CC(C)(C)c1cc(NC(=O)Nc2ccc(OCc3ccccc3)cc2)no1` [Compound G31], the figure is below 0.1 µM.
On to `CC(C)(C)c1cc(NC(=O)Nc2ccc(NC(=O)c3cc4cc(Br)ccc4s3)cc2)no1` [Compound N126], for which the Kd lay in the range of 1 to 10 µM.
To `CC(C)(C)c1cc(NC(=O)Nc2ccc(NC(=O)CC(N)c3ccccc3Cl)cc2)no1` (stereo not drawn) [Compound N44] belongs 1 to 10 µM; to `CC(C)(C)c1cc(NC(=O)Nc2ccc(NC(=O)c3c4ccccc4nc4ccccc34)cc2)no1` [Compound N148], 1 to 10 µM; to `CC(C)(C)c1cc(NC(=O)Nc2ccc(NC(=O)c3cc(Cl)cc(Cl)c3)cc2)no1` [Compound N29], 0.1 to 1 µM.
As for `COc1ccc(-c2cc(C(=O)Nc3ccc(NC(=O)Nc4cc(C(C)(C)C)on4)cc3)c(C)o2)cc1` [Compound N118], the figure is 1 to 10 µM.
As for `CC(C)(C)c1cc(NC(=O)Nc2ccc(NC(=O)c3cccc4nsnc34)cc2)no1` [Compound N109], the figure is 0.1 to 1 µM; as for `Cc1cccnc1-c1noc(-c2ccc(NC(=O)Nc3cc(C(C)(C)C)on3)cc2)n1` [Compound P4], 0.1 to 1 µM.
In turn, `CC(C)(C)c1cc(NC(=O)Nc2ccc(-c3ccccc3)cc2)no1` [Compound A23] had a dissociation constant (Kd) of 0.1 to 1 µM.
To `Cc1sc(NC(=O)Nc2ccc(Cl)cc2)c(C(N)=O)c1C` [Compound Z58] belongs 0.1 to 1 µM; to `Cc1c(Cl)cccc1NC(=O)Nc1cc(C(C)(C)C)on1` [Compound A5], 1 to 10 µM.
As for `CC(C)(C)c1cc(N2CCCN(c3ccc(OCc4ccccc4)cc3)C2=O)on1` [Compound E2], the figure is 1 to 10 µM; as for `CC(C)(C)c1cc(NC(=O)Nc2ccc(OCCN3CCOCC3)cc2)no1` [Compound G40], 1 to 10 µM.
For `Cc1ccc(S(=O)(=O)Nc2ccc(NC(=O)Nc3cc(C(C)(C)C)on3)cc2)cc1` [Compound V2], the Kd was in the range of 1 to 10 µM.
As for `O=C(Nc1ccccc1)Nc1ccc(-n2cnc(Cl)c2Cl)cc1` [Compound Z65], the figure is 1 to 10 µM; as for `CC(C)(C)c1cc(NC(=O)Nc2ccc(NC(=O)c3cccc4cccnc34)cc2)no1` [Compound N115], below 0.1 µM.
As to `COc1ccc(NC(=O)Nc2cc(C(C)(C)C)on2)cc1` [Compound A29], the Kd was in the range of 1 to 10 µM.
Take `COc1ccc(-c2noc(-c3ccc(NC(=O)Nc4cc(C(C)(C)C)on4)cc3)n2)c2ccccc12` [Compound P3]: the Kd lay within 1 to 10 µM.
With `CC(C)(C)c1cc(NC(=O)Nc2ccc(NC(=O)c3c(F)cccc3C(F)(F)F)cc2)no1` [Compound N95], the Kd was in the range of 1 to 10 µM.
As for `CC(C)(C)c1cc(NC(=O)Nc2ccc(NC(=O)c3cnc(Cl)c(Cl)c3)cc2)no1` [Compound N123], the figure is 1 to 10 µM.
To `COc1cc(NC(=O)Nc2cc(C(C)(C)C)no2)cc(OC)c1OC` [Compound A49] belongs 0.1 to 1 µM.
As for `CC(C)(C)c1cc(NC(=O)Nc2ccc(Cl)cc2)on1` [Compound A32], the figure is 0.1 to 1 µM.
`CC(C)(C)c1cc(NC(=O)Nc2ccc(NC(=O)c3cnccn3)cc2)no1` [Compound N136] yielded a Kd below 0.1 µM.
In the case of `CCc1ccc(C(=O)Nc2ccc(NC(=O)Nc3cc(C(C)(C)C)on3)cc2)cc1` [Compound N32], the Kd is 0.1 to 1 µM.
The molecule `CC(C)(C)OC(=O)Nc1ccc(NC(=O)Nc2cc(C(C)(C)C)on2)cc1` [Compound N101] gave a Kd of 0.1 to 1 µM.
The molecule `Cc1ccc(CNc2ccc(NC(=O)Nc3cc(C(C)(C)C)on3)cc2)cc1` [Compound O9] displayed a Kd of 0.1 to 1 µM.
As for `Cc1ccc(COc2ccc(NC(=O)Nc3cc(C(C)(C)C)on3)cc2)cc1` [Compound G15], the figure is 0.1 to 1 µM; as for `Cn1nc(-c2ccccc2)c2cc(C(=O)Nc3ccc(NC(=O)Nc4cc(C(C)(C)C)on4)cc3)sc21` [Compound N5], 0.1 to 1 µM.
To `CCOC(=O)CCc1c(C)[nH]c(C(=O)Nc2ccc(NC(=O)Nc3cc(C(C)(C)C)on3)cc2)c1C` [Compound N83] belongs 0.1 to 1 µM; to `CC(C)(C)c1cc(NC(=O)Nc2ccc(NC(=O)c3ccc(Cl)cc3Cl)cc2)no1` [Compound N130], 1 to 10 µM.
To `CC(C)(C)c1cc(NC(=O)Nc2ccc(NC(=O)c3cccc4c3OCCO4)cc2)no1` [Compound N111] belongs 1 to 10 µM; to `CC(C)(C)c1cc(NC(=O)Nc2ccc(-c3nc(-c4cccc5ccccc45)no3)cc2)no1` [Compound P5], 1 to 10 µM.
For the molecule `CC(C)(C)c1cc(NC(=O)Nc2ccc(OCc3ccc(F)cc3Cl)cc2)no1` [Compound G18], the Kd lay in the range of 0.1 to 1 µM.
As for `Cc1ccc(C(=O)Nc2ccc(NC(=O)Nc3cc(C(C)(C)C)on3)cc2)cn1` [Compound N142], the figure is 0.1 to 1 µM.
As for `CC(C)(C)c1cc(NC(=O)Nc2ccc(OCc3ccccc3)cc2)on1` [Compound G30], the figure is 0.1 to 1 µM; as for `CC(C)(C)c1cc(NC(=O)Nc2ccc(NC(=O)C3CCCCC3)cc2)no1` [Compound N91], 1 to 10 µM.
To `CC(C)(C)c1cc(NC(=O)Nc2ccncc2)no1` [Compound A53] belongs 1 to 10 µM; to `Cc1ccc(-n2nc(C(C)(C)C)cc2NC(=O)Nc2ccc(Cl)cc2)cc1` [Compound H14], 1 to 10 µM; to `CC(C)(C)c1cc(NC(=O)Nc2ccc(OCc3ccc(C(=O)c4ccccc4)cc3)cc2)no1` [Compound G9], 0.1 to 1 µM.
`CC(C)(C)c1cc(NC(=O)Nc2ccc(OCCc3ccncc3)cc2)no1` [Compound G22] displayed a Kd below 0.1 µM.
To `CC(C)(C)c1cc(NC(=O)Nc2ccc(NC(=O)c3ncc[nH]3)cc2)no1` [Compound N13] belongs below 0.1 µM; to `COc1cc(C(=O)Nc2ccc(NC(=O)Nc3cc(C(C)(C)C)on3)cc2)nc2ccccc12` [Compound N137], 0.1 to 1 µM.
`CC(C)(C)c1cc(NC(=O)Nc2ccc(NC(=O)c3ccc(Cl)nc3)cc2)no1` [Compound N125] displayed a Kd of 1 to 10 µM.
As for `CC(C)(C)c1cc(NC(=O)Nc2ccc(NC(=O)c3c[nH]c(=O)nc3-c3ccncc3)cc2)no1` [Compound N19], the figure is 1 to 10 µM; as for `Cc1ccc(NC(=O)Nc2cc(C(C)(C)C)on2)cc1` [Compound A33], 0.1 to 1 µM; as for `O=C(Nc1ccno1)Nc1ccc(Cl)cc1Cl` [Compound Z12], 1 to 10 µM.
To `Cc1ccc(NC(=O)c2ccc(NC(=O)Nc3cc(C(C)(C)C)on3)cc2)cc1` [Compound N84] belongs below 0.1 µM; to `CC(C)(C)c1cc(NC(=O)Nc2ccc(NC(=O)c3ccccc3Cl)cc2)no1` [Compound N23], below 0.1 µM.
To `CC(C)(C)c1cc(NC(=O)Nc2ccc(NC(=O)c3c(Cl)cccc3Cl)cc2)no1` [Compound N94] belongs 0.1 to 1 µM; to `CC(C)Oc1ccc(NC(=O)Nc2cc(C(C)(C)C)no2)cc1` [Compound G33], below 0.1 µM; to `Cn1nc(C(C)(C)C)cc1NC(=O)Nc1cccc([N+](=O)[O-])c1` [Compound D21], above 10 µM.
On to `CC(C)(C)c1cc(NC(=O)Nc2ccc(OCCN3CCSCC3)cc2)no1` [Compound G53], for which the equilibrium dissociation constant (Kd) lay in the range of 1 to 10 µM.
As for `CC(C)(C)c1cc(NC(=O)Nc2ccc(NC(=O)c3nccnc3C(N)=O)cc2)no1` [Compound N138], the figure is 0.1 to 1 µM; as for `COc1cccc(CNC(=O)Nc2cc(C(C)(C)C)on2)c1` [Compound B3], 1 to 10 µM.
As for `CC1CN(CCOc2ccc(NC(=O)Nc3cc(C(C)(C)C)on3)cc2)CCN1` (stereo not drawn) [Compound G46], the figure is above 10 µM; as for `CC(C)(C)c1cc(NC(=O)Nc2ccc3cc4ccccc4cc3c2)no1` [Compound A18], 1 to 10 µM.
Turning to `CC(C)(C)c1cc(NC(=O)Nc2ccc(OCCc3ccc(F)cc3)cc2)no1` [Compound G24], the Kd fell in the range of 0.1 to 1 µM.
The molecule `Cn1nc(C(C)(C)C)cc1NC(=O)Nc1ccc(OCc2ccccc2)cc1` [Compound H2] yielded a Kd of 0.1 to 1 µM.
To `Cn1nc(-c2ccccc2)c(C(=O)Cc2ccc(NC(=O)Nc3cc(C(C)(C)C)on3)cc2)c1Cl` [Compound N11] belongs above 10 µM; to `Cc1ccc(-n2nc(C(C)(C)C)cc2NC(=O)Nc2ccc(OCCN3CCOC(CO)C3)c3ccccc23)cc1` (stereo not drawn) [Compound G38], 0.1 to 1 µM.

One may read the Kd as the concentration at which binding is half-saturated. The low end stands for tighter binding, the high end for weaker binding.
